Measurements: patent US20170000749A1, “Methods for Treating Cognitive Disorders Using Inhibitors of Histone Deacetylase” (Forum Pharmaceuticals, Inc., priority 2008, published 2017)
Like-named read-outs stand apart in the source and are kept apart here.

Assays:
[1] = tested on: HDAC activity in primary mouse cortical cultures; assay: Whole-Cell Histone Deacetylase (HDAC) Inhibition Assay in Primary Mouse Cortical Cultures; assay type: cell-based; conditions: whole-cell (WC), mouse cortical neurons, read-out: HDAC Inhibition (IC50 μM) WC mouse cortical neurons
Experimental: Primary neocortical cultures are established through the dissection of the neocortex from E17 embryos harvested from time-pregnant Balb/C mice. Following dissection, the neocortical tissue specimens undergo digestion by incubation at 37° C. for 10 minutes in dissection medium (1×HBSS/10 mM HEPES/1 mM Sodium Pyruvate) supplemented with (0.25%) Trypsin and (0.1%) DNase I. Digested tissue is washed and resuspended in plating medium (NeuroBasal/10% HS/0.5 mM L-Glutamine (Invitrogen Corporation)) for trituration. Additional plating medium is added, and the contents are passed over a 70 um cell-strainer. The cell-density is quantified using a hemacytometer, and dilutions are made to allow for the plating of 50000 cells/well/100 uL in 96-well PDL-coated plates. Plates are incubated for 4-5 hours in 37° C./5% CO2-incubator, after which time the entire volume is exchanged to feeding medium (NeuroBasal/2% B-27 Serum-free supplement/0.5 mM L-Glutamine/1% Penicillin-Streptomycin (Invitrogen Corporation)). The cultures undergo two 50% fresh feeding medium exchanges at 3 days in vitro (DIV3), and again at DIV7.
Compounds for testing are resuspended in dimethyl sulphoxide (DMSO), and further diluted in DMSO for a ten-point dose-response curve, with appropriate controls. Each master plate is assayed in triplicate. […] Three DIV9 culture plates are leveled to 50 uL/well, onto which each has overlaid 50 uL/well of the diluted daughter plate. The plates are returned to the 37° C./5% CO2-incubator for 16-18 hours.
The next step of the assay involves the exposure of a HDAC colorimetric substrate, comprising an acetylated lysine side chain, to the compound-treated neuronal cultures. Based on the ability of the compound to inhibit HDAC activity in the neuronal cultures, the substrate is deacetylated by HDACs, and subsequently sensitized. […] Compound-incubated culture plates are again leveled to 50 uL/well and 2 uL/well of 7.5 mM BOC-Lys (Ac)-AMC substrate is added and thoroughly mixed. Plates are returned to the 37° C./5% CO2-incubator for 1 hour.
The final addition to the culture plates entails treatment with a Fluor de Lys™-based developer (BIOMOL Research Laboratories, Inc.) to produce a fluorophore, which is analyzed using a spectrophotometer. The developer solution (1×Fluor de Lys™/1% NP-40/1 uM TSA in HDAC Buffer Solution) is prepared, and 50 uL/well is added to each of the wells of the culture plates. […] The plates are returned to the 37° C./5% CO2-incubator for 10-15 minutes, after which time, they are removed and set in the dark at room temperature for 5-10 minutes.
Primary neocortical cultures were established through the dissection of the neocortex from E17 embryos harvested from time-pregnant Balb/C mice. Following dissection, the neocortical tissue specimens underwent digestion by incubation at 37° C. for 10 minutes in dissection medium (1×HBSS/10 mM HEPES/1 mM Sodium Pyruvate) supplemented with (0.25%) Trypsin and (0.1%) DNase I. Digested tissue was washed and resuspended in plating medium (NeuroBasal/10% HS/0.5 mM L-Glutamine (Invitrogen Corporation)) for trituration. Additional plating medium was added, and the contents passed over a 70 um cell-strainer. The cell-density was quantified using a hemacytometer, and dilutions made to allow for the plating of 50000 cells/well/100 uL in 96-well PDL-coated plates. Plates were incubated for 4-5 hours in 37° C./5% CO2-incubator, after which time the entire volume was exchanged to feeding medium (NeuroBasal/2% B-27 Serum-free supplement/0.5 mM L-Glutamine/l % Penicillin-Streptomycin (Invitrogen Corporation)). The cultures underwent two 50% fresh feeding medium exchanges at 3 days in vitro (DIV3), and again at DIV7.
Compounds for testing were resuspended in dimethyl sulphoxide (DMSO), and further diluted in DMSO for a ten-point dose-response curve, with appropriate controls. Each master plate was assayed in triplicate.

[2] = target: one or more of HDAC-1, HDAC-2, HDAC-3, HDAC-4, HDAC-5, HDAC-6, HDAC-7, HDAC-8, HDAC-9, HDAC-10 and HDAC-11; assay: Inhibition of Histone Deacetylase Enzymatic Activity (Boc-Lys(Ac)-AMC substrate, Fluor-de-Lys developer); assay type: biochemical; conditions: read-out: HDAC Inhibition (IC50 μM) HDAC Enzyme
Experimental: The following protocol is used to assay the compounds of the disclosure.
The mixture is pre-incubated for 5 minutes at room temperature. The reaction is started by bringing the temperature to 37° C. and adding 16 μl substrate. Total reaction volume is 50 μl.
In the Tables 8, 9 and 10, A≦0.05 μM; 0.05 μM<B≦0.1 μM; 0.1 μM<C≦1 μM; and 1 μM<D≦10 μM.

Compound | IC50 ([1]; Table 10) | IC50 ([2]; Table 10) | further results
O=C(NO)c1ccc(OCCN2C(=O)c3cc(F)ccc3Oc3ccccc32)cc1 | < 1 µM | < 0.05 µM | –
O=C(NO)c1ccc(OCCN2C(=O)c3ccccc3Oc3cc(Cl)ccc32)cc1 | 1 to 5 µM | < 0.05 µM | –
O=C(NO)c1ccc(OCC(=O)N2Cc3ccccc3Oc3ccccc32)cc1 | 1 to 5 µM | 0.1 to 1 µM | –
O=C(NO)c1ccc(C2=Nc3ccccc3S(=O)(=O)c3ccccc32)cc1 | – | – | IC50 ([1]; Table 8): 5 to 15 µM; IC50 ([2]; Table 8): 1 to 10 µM
O=C(NO)c1ccc(C2=Nc3ccccc3[S+]([O-])c3ccccc32)cc1 (stereo not drawn) | – | – | IC50 ([1]; Table 8): 1 to 5 µM; IC50 ([2]; Table 8): 0.1 to 1 µM
O=C(NO)c1ccc(C2=Nc3cncnc3N3CCc4cccc2c43)cc1 | – | – | IC50 ([1]; Table 8): 5 to 15 µM; IC50 ([2]; Table 8): 0.1 to 1 µM
O=C(NO)c1cnc(N2C[C@@H]3C[C@H]2CN3c2cccc(S(F)(F)(F)(F)F)c2)nc1 | – | – | IC50 ([1]; Table 9): 1 to 5 µM; IC50 ([2]; Table 9): < 0.05 µM
O=C(CCCCCCCON=C1c2ccccc2CCc2ccccc21)NO | 1 to 5 µM | 0.1 to 1 µM | –
O=C(NO)c1ccc(CON=C2c3ccccc3CCc3ccccc32)cc1 | 5 to 15 µM | 0.1 to 1 µM | –
O=C(CCCCCC(=O)NC1c2ccccc2C=Cc2ccccc21)NO | 1 to 5 µM | 0.1 to 1 µM | –
O=C(NO)c1cnc(NC2c3ccccc3C=C(F)c3ccccc32)nc1 (stereo not drawn) | < 1 µM | < 0.05 µM | –
CN1CCC2=C(C1)Oc1ccccc1N(CCOc1ccc(C(=O)NO)cc1)C2=O | < 1 µM | < 0.05 µM | –
O=C(NO)c1ccc(OCCN2C(=O)c3cccnc3Oc3ccccc32)cc1 | < 1 µM | < 0.05 µM | –
O=C(NO)c1ccc(OCCN2C(=O)c3ccncc3Oc3ccccc32)cc1 | < 1 µM | < 0.05 µM | –
O=C(/C=C/c1ccc(CN2C(=O)c3ccccc3Oc3ccccc32)cc1)NO | 1 to 5 µM | < 0.05 µM | –
O=C(NO)c1cnc(N2C[C@@H]3C[C@H]2CN3C(=O)C2CCCCC2)nc1 [2-((1S,4S)-5-(cyclohexanecarbonyl)-2,5-diazabicyclo[2.2.1]heptan-2-yl)-N-hydroxypyrimidine-5-carboxamide] | – | – | IC50 ([1]; Table 9): 1 to 5 µM
O=C(NO)c1cnc(NC(c2ccccn2)c2ccccn2)nc1 [2-(dipyridin-2-ylmethylamino)-N-hydroxypyrimidine-5-carboxamide] | < 1 µM | – | –
CN(C)CCOc1ccc2c(c1)C(c1ccc(C(=O)NO)cc1)=Nc1ccccc1O2 [(Z)-4-(2-(2-(dimethylamino)ethoxy)dibenzo[b,f][1,4]oxazepin-11-yl)-N-hydroxybenzamide] | – | – | IC50 ([1]; Table 8): > 15 µM
CN(O)C(=O)c1ccc(C2=Nc3ccccc3N(C3CC3)c3ccccc32)cc1 [(Z)-4-(5-cyclopropyl-5H-dibenzo[b,e][1,4]diazepin-11-yl)-N-hydroxy-N-methylbenzamide] | – | – | IC50 ([2]; Table 8): 1 to 10 µM
O=C1CN=C(c2ccc(C(=O)NO)cc2)c2cc(Br)sc2N1 [(Z)-4-(7-bromo-2-oxo-2,3-dihydro-1H-thieno[2,3-e][1,4]diazepin-5-yl)-N-hydroxybenzamide] | – | 0.1 to 1 µM | –
O=C(NO)c1ccc(C2=Nc3ccccc3N(CC3CC3)c3ncccc32)cc1 [(Z)-4-(11-(cyclopropylmethyl)-11H-benzo[b]pyrido[2,3-e][1,4]diazepin-5-yl)-N-hydroxybenzamide] | – | – | IC50 ([2]; Table 8): 1 to 10 µM
O=C(NO)c1ccc(C2=Nc3ccccc3Sc3ccccc32)cc1 [(Z)-4-(dibenzo[b,f][1,4]thiazepin-11-yl)-N-hydroxybenzamide] | – | – | IC50 ([2]; Table 8): 0.1 to 1 µM
O=C(NO)c1ccc(C2=Nc3ccccc3N(CCN3CCOCC3)c3ccccc32)cc1 [(Z)-N-hydroxy-4-(5-(2-morpholinoethyl)-5H-dibenzo[b,e][1,4]diazepin-11-yl)benzamide] | – | – | IC50 ([2]; Table 8): 0.1 to 1 µM
O=C(NO)c1ccc2c(c1)N=C(c1ccncc1)c1ccccc1O2 [(Z)-N-hydroxy-11-(pyridin-4-yl)dibenzo[b,f][1,4]oxazepine-8-carboxamide] | – | – | IC50 ([2]; Table 8): 0.1 to 1 µM
O=C(NO)c1ccc(N2C[C@@H]3C[C@H]2CN3c2nccc(C(F)(F)F)n2)cc1 [N-hydroxy-4-((1S,4S)-5-(4-(trifluoromethyl)pyrimidin-2-yl)-2,5-diazabicyclo[2.2.1]heptan-2-yl)benzamide] | – | – | IC50 ([1]; Table 9): 1 to 5 µM
O=C(NO)c1ccc(Cn2c(-c3ccccc3)cc3ccccc32)cc1 [N-hydroxy-4-((2-phenyl-1H-indol-1-yl)methyl)benzamide] | – | 0.1 to 1 µM | –

Further lines, with some results ahead:

IC50 ([1]; Table 10) | IC50 ([2]; Table 10) | Compound | further results
5 to 15 µM | < 0.05 µM | O=C(NO)c1cnc(N2CCCN(c3ncc(C(F)(F)F)cc3Cl)CC2)nc1 | –
< 1 µM | 0.05 to 0.1 µM | O=C(NO)c1ccc(OCCN2C(=O)c3ccccc3Oc3ccccc32)c(F)c1 | –
1 to 5 µM | 0.1 to 1 µM | O=C(CCCCCCON=C1c2ccccc2CCc2ccccc21)NO | –
5 to 15 µM | 0.1 to 1 µM | O=C(CCCCCON=C1c2ccccc2CCc2ccccc21)NO | –
5 to 15 µM | 0.1 to 1 µM | O=C(CCCON=C1c2ccccc2CCc2ccccc21)NO | –
5 to 15 µM | < 0.05 µM | O=C(NO)c1ccc(CNC2c3ccccc3CCc3ccccc32)cc1 | –
1 to 5 µM | < 0.05 µM | CN(c1ncc(C(=O)NO)cn1)C1c2ccccc2CCc2ccccc21 | –
< 1 µM | < 0.05 µM | O=C(NO)c1cnc(NC2c3ccccc3C=Cc3ccccc32)nc1 | –
1 to 5 µM | 0.1 to 1 µM | O=C(CCCCCCN1c2ccccc2Oc2ccccc2S1(=O)=O)NO | –
1 to 5 µM | 0.1 to 1 µM | O=C(CCCCCCC(=O)NC1c2ccccc2C=Cc2ccccc21)NO | –
< 1 µM | < 0.05 µM | O=C(NO)c1ccc(NC2c3ccccc3CCc3ccccc32)nc1 | –
> 15 µM | 0.1 to 1 µM | O=C(NO)c1cnc(C2c3ccccc3C=Cc3ccccc32)nc1 | –
> 15 µM | 0.1 to 1 µM | O=C(NO)c1cccc(OCCN2C(=O)c3ccccc3Oc3ccccc32)c1 | –
< 1 µM | < 0.05 µM | O=C(NO)c1ccc(OCCN2C(=O)c3ccccc3Oc3ccccc32)cc1 | –
< 1 µM | < 0.05 µM | O=C(NO)c1ccc(OCCN2C(=O)CCOc3ccccc32)cc1 | –
1 to 5 µM | < 0.05 µM | O=C(NO)c1ccc(OCCN2CCOc3ccccc3C2=O)cc1 | –
– | 0.1 to 1 µM | O=C(NO)c1cnc(N2C[C@H]3C[C@@]3(c3ccccc3)C2)nc1 [N-hydroxy-2-((1R,5S)-1-phenyl-3-azabicyclo[3.1.0]hexan-3-yl)pyrimidine-5-carboxamide] | –
– | 1 to 10 µM | CN1CCc2[nH]c3ccc(C(=O)NO)cc3c2C1 [N-hydroxy-2-methyl-2,3,4,5-tetrahydro-1H-pyrido[4,3-b]indole-8-carboxamide] | –
– | 1 to 10 µM | O=C(NO)c1cc2c(cn1)[nH]c1ccccc12 [N-hydroxy-9H-pyrido[3,4-b]indole-3-carboxamide] | –
– | < 0.05 µM | O=CN(O)CCCCCCN1C(=O)c2ccccc2Oc2ccccc21 [N-hydroxy-N-(6-(11-oxodibenzo[b,f][1,4]oxazepin-10(11H)-yl)hexyl)formamide] | –
– | 0.1 to 1 µM | (Z)-N-(5H-dibenzo[b,f]azepin-5-yl)methyl)benzyl)-N-hydroxyformamide | –
